{"source": "ChEMBL document CHEMBL4130444", "about": "“1,4-Naphthoquinones as inhibitors of Itch, a HECT domain-E3 ligase, and tumor growth suppressors in multiple myeloma” (Eur J Med Chem, 2017)", "key": {"HCT-116": {"test_system": "HCT-116", "assay": "Antiproliferative activity against human HCT116 cells incubated for 48 hrs by SRB assay", "assay_type": "functional", "settings": "HCT-116, 48 h"}, "MDA-MB-231": {"test_system": "MDA-MB-231", "assay": "Antiproliferative activity against human MDA-MB-231 cells incubated for 48 hrs by SRB assay", "assay_type": "functional", "settings": "MDA-MB-231, 48 h"}}}
{"smiles": "O=C(Nc1ccccn1)c1ccc(CNC2=C(Cl)C(=O)c3ccccc3C2=O)cc1", "values": [{"measurement": "GI50", "setting": "HCT-116", "value": "> 10", "unit": "µM"}, {"measurement": "GI50", "setting": "MDA-MB-231", "value": "> 10", "unit": "µM"}]}
